Measured values from patent US8309582B2, “Small molecule Bcl-Xl/Bcl-2 binding inhibitors” (The Ohio State University Research Foundation, priority 2004, dated 2012).
Read-outs that look alike come from different tables or passages of the source.

Key:
[1] = molecular target: Bcl-2 (Homo sapiens, UniProt P10415); experiment: Competitive fluorescence polarization assay, displacement of Flu-BakBH3 peptide from Bcl-2; assay type: binding
Experimental: (§1) Competitive Fluorescence Polarization Assay. The binding affinity of the test agent to Bcl-2 and Bcl-xL was analyzed by a competitive fluorescence polarization assay, in which the ability of the agent to displace the binding of a Bak BH3-domain peptide to either Bcl-2 or Bcl-xL was determined. Flu-BakBH3, a Bak-BH3 peptide labeled at the N-terminus with fluorescein, was purchased from Genemed Synthesis (San Francisco, Calif.). C-Terminal-truncated, His-tagged Bcl-xL was purchased from EMD Biosciences (San Diego, Calif.), and soluble GST-fused Bcl-2 was obtained from Santa Cruz (Santa Cruz, Calif.). The KD determination was carried out in a dual-pathlength quartz cell with readings taken at […] at room temperature using a luminescence spectrometer according to an established procedure (17). Determination of IC50 values. Data from cell viability and FP assays were analyzed by using the CalcuSyn software (Biosoft, Ferguson, Mo.) to determine IC50 values, in which the calculation was based on the medium effect equation (18), i.e., Log(fa/fu)=m log(D)−m log(Dm) (equation 1), where fa and fu denote fraction affected and unaffected, respectively; m represents the Hill-type coefficient signifying the sigmoidicity of the dose-effect curve; D and Dm are the dose used and IC50, respectively.

[2] = test system: PC-3 cells; experiment: Cell viability analysis (MTT) in PC-3 cells; assay type: cell-based; conditions: read-out: IC50 (μM) PC3
Experimental: Cell viability analysis. The effect of individual test agents on cell viability was assessed by using the MTT {[3-(4,5-dimethylthiazol-2-yl)-2,5-diphenyl-2H-tetrazolium bromide]} assay in six to twelve replicates. […] Controls received DMSO vehicle at a concentration equal to that in drug-treated cells. […] Supernatants were removed from the wells, and the reduced MTT dye was solubilized in 200 μl/well DMSO. Absorbance at 570 nm was determined on a plate reader.
(§2) Determination of IC50 values. Data from cell viability and FP assays were analyzed by using the CalcuSyn software (Biosoft, Ferguson, Mo.) to determine IC50 values, in which the calculation was based on the medium effect equation (18), i.e., Log(fa/fu)=m log(D)−m log(Dm) (equation 1), where fa and fu denote fraction affected and unaffected, respectively; m represents the Hill-type coefficient signifying the sigmoidicity of the dose-effect curve; D and Dm are the dose used and IC50, respectively.

[3] = test system: LNCaP cells; experiment: Cell viability analysis (MTT) in LNCaP cells; assay type: cell-based; conditions: Homo sapiens
Experimental: (§3) Cell viability analysis. The effect of individual test agents on cell viability was assessed by using the MTT {[3-(4,5-dimethylthiazol-2-yl)-2,5-diphenyl-2H-tetrazolium bromide]} assay in six to twelve replicates. Cells were seeded and incubated in 96-well, flat-bottomed plates in serum-free media for 24 h, and were exposed to various concentrations of test agents dissolved in DMSO (final concentration, 0.1%) in serum-free RPMI 1640 medium for different time intervals. Controls received DMSO vehicle at a concentration equal to that in drug-treated cells. The medium was removed, replaced by 200 μl of 0.5 mg/ml of MTT in 10% FBS-containing RPMI-1640 medium, and cells were incubated in the CO2 incubator at 37° C. for 2 h. Supernatants were removed from the wells, and the reduced MTT dye was solubilized in 200 μl/well DMSO. Absorbance at 570 nm was determined on a plate reader.
as §2

[4] = molecular target: T1, Bcl-xL (Homo sapiens, UniProt Q07817); experiment: Competitive fluorescence polarization assay, displacement of Flu-BakBH3 peptide from Bcl-xL; assay type: binding
T1 construct: fused on or other part: His tag
Experimental: as §1

[5] = WB (IC50 for WB, Tables 1-9); assay type: cell-based; conditions: marker, cell line and unit inferred
Experimental: (§4) Immunoblotting. Cells in T-75 flasks were collected by scraping, and suspended in 60 μl of phosphate-buffered saline (PBS). Two μl of the suspension was taken for protein analysis using the Bradford assay kit (Bio-Rad, Hercules, Calif.). To the remaining solution was added the same volume of 2×SDS-PAGE sample loading buffer (100 mM Tris-HCl, pH 6.8, 4% SDS, 5% β-mercaptoethanol 20% glycerol, and 0.1% bromophenol blue). The mixture was sonicated briefly, and boiled for 5 min. Equal amounts of proteins were loaded onto 10% SDS-PAGE gels.
(§5) After electrophoresis, protein bands were transferred to nitrocellulose membranes in a semidry transfer cell. The transblotted membrane was washed twice with Tris-buffered saline (TBS) containing 0.1% Tween 20 (TBST). After blocking with TBST containing 5% nonfat milk for 40 min, the membrane was incubated with the appropriate primary antibody in TBST-1% nonfat milk at 4° C. overnight. All primary antibodies were diluted 1:1000 in 1% nonfat milk-containing TBST. After treatment with the primary antibody, the membrane was washed three times with TBST for a total of 15 min, followed by incubation with goat anti-rabbit or anti-mouse IgG-horseradish peroxidase conjugates (diluted 1:5000) for 1 h at room temperature and three washes with TBST for a total of 1 h. The immunoblots were visualized by enhanced chemiluminescence.

[6] = MTT assay (IC50 for MTT, Tables 1-9); assay type: cell-based; conditions: cell line and unit inferred
Experimental: as §3, §2

[7] = molecular target: T2, PPARγ (Homo sapiens, UniProt P37231); experiment: Analysis of PPARγ activation (transcription factor ELISA, PC-3 nuclear extracts); assay type: cell-based; conditions: PC-3 cells, 10 μM, 48 h, versus DMSO vehicle
T2 construct: endogenous in cells; host or cells: PC-3 prostate cancer cells
T2 sequence (P37231 1-505): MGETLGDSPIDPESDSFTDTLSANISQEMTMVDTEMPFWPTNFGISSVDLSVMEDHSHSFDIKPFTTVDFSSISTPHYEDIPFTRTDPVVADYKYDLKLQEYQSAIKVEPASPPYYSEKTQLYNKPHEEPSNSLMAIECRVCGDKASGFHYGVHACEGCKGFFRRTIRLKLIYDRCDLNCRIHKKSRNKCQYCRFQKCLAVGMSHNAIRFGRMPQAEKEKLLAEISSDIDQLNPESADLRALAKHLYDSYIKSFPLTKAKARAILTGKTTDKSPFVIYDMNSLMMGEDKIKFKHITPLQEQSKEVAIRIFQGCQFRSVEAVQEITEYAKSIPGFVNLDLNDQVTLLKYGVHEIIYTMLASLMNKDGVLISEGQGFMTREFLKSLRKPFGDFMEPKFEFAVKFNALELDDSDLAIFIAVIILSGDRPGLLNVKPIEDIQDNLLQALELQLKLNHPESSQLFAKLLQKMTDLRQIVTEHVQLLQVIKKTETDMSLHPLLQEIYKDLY
Experimental: Analysis of PPARγ activation. The analysis was carried out by using a PPARγ transcription factor ELISA kit (Active Motif, Carlsbad, Calif.), in which an oligonucleotide containing the peroxisome proliferator response element (PPRE) was immobilized onto a 96-well plate. PPARs contained in nuclear extracts bind specifically to this oligonucleotide and are detected through an antibody directed against PPARγ. […] Cells were collected, and nuclear extracts were prepared with a Nuclear Extract kit (Active Motif, Carlsbad, Calif.). Nuclear extracts of the same protein concentration from individual treatments were subject to the PPARγ transcription factor ELISA according to the manufacturer's instruction.

[8] = test system: PC-3 xenograft tumors; experiment: Xenograft tumor growth (PC-3 tumors in nude mice)
Experimental: Xenograft tumor growth. Male NCr athymic nude mice (5-7 weeks of age) were obtained from the National Cancer Institute (Frederick, Md.). […] All experimental procedures utilizing these mice were performed in accordance with protocols approved by the Institutional Laboratory Animal Care and Use Committee of The Ohio State University.
Each mouse was inoculated subcutaneously in the right flank with 5×10^5 PC-3 cells suspended in 0.1 ml of serum-free medium containing 30% Matrigel (BD Biosciences, Bedford, Mass.) under isoflurane anesthesia. […] Controls received vehicle consisting of 0.5% methylcellulose and 0.1% polysorbate 80 in sterile water. The volume of drug or vehicle administered to each mouse was 0.02 ml/gram body weight. Tumors were measured weekly using calipers and their volumes calculated using a standard formula: width^2×length×0.52. Body weights were measured weekly.
Statistical analysis. […] Tumor growth data are expressed as mean tumor volumes±SE. For all data, differences were considered significant at P<0.05. Statistical procedures were performed using SPSS for Windows (SPSS, Inc., Chicago, Ill.).

[9] = test system: caspase-9; experiment: Caspase-9 activation in PC-3 cells (Western blot); assay type: cell-based; conditions: 24 h
Experimental: as §4, §5

[10] = molecular target: T3, Bcl-xL/Bak (Homo sapiens, UniProt Q07817); experiment: Co-immunoprecipitation of Bak with Bcl-xL in PC-3 cells; assay type: cell-based; conditions: 50 μM, 12 h, compared to DMSO control
T3 construct: endogenous in cells; host or cells: PC-3 prostate cancer cells
Experimental: (§6) Co-immunoprecipitation. […] After centrifugation at 13000×g for 15 min, the supernatants were collected, pre-incubated with protein A-Sepharose (Sigma, St. Louis, Mo.) for 15 min, and centrifuged at 1000×g for 5 min. The supernatants were exposed to Bcl-2 or Bcl-xL antibodies in the presence of protein A-Sepharose at 4° C. for 2 h. After brief centrifugation, protein A-Sepharose were collected, washed with the aforementioned lysis buffer 2 times, suspended in 2×SDS sample buffer, and subjected to Western blot analysis with antibodies against Bak.

[11] = molecular target: T4, Bcl-2/Bak (Homo sapiens, UniProt P10415); experiment: Co-immunoprecipitation of Bak with Bcl-2 in PC-3 cells; assay type: cell-based; conditions: 50 μM, 12 h, compared to DMSO control
T4 construct: endogenous in cells; host or cells: PC-3 prostate cancer cells
Experimental: as §6

[12] = inhibition of Bak BH3 peptide binding to Bcl-2, FP, read-out: IC50 Bcl-2/Bak
[13] = inhibition of Bak BH3 peptide binding to Bcl-xL, FP, read-out: IC50 Bcl-xl/Bak

Bcl-2, sequence (P10415 whole entry, the tested form may be a part): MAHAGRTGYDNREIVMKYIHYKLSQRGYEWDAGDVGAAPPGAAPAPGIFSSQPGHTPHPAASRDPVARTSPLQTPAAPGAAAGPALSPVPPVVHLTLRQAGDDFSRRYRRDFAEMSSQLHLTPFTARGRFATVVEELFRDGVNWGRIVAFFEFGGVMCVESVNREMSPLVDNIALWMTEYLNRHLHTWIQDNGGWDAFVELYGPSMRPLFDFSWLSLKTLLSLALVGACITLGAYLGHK
T1 sequence (Q07817 1-209 limits assumed): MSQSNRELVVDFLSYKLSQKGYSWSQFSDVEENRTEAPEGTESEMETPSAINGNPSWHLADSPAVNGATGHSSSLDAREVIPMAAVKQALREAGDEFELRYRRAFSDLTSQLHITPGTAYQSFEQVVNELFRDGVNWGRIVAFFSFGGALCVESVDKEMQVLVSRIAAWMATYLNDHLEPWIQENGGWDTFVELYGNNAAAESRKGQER
T4 sequence (P10415 whole entry): as the sequence (P10415 whole entry, the tested form may be a part) above
T3 sequence (Q07817 whole entry): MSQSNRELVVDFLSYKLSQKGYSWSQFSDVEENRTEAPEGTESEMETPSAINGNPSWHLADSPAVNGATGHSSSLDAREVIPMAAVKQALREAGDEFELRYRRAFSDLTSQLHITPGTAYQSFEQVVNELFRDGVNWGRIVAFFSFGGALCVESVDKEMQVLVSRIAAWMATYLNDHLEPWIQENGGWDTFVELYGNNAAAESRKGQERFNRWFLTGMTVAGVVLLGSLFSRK

Cc1c(C)c2c(c(C)c1O)CCC(C)(COc1ccc(CC3SC(=O)NC3=O)cc1)O2 (centres unmarked) [TG, troglitazone, reference compound]
IC50 [1, 12]: 22 ± 1 µM | IC50 ([2]; Homo sapiens, PC-3, PC-3 cells): 30 ± 2 µM | IC50 [3]: 22 ± 3 µM | IC50 [4, 13]: 22 ± 1 µM

Cc1c(C)c2c(c(C)c1OC/C=C/c1ccccc1)CCC(C)(COc1ccc(/C=C3\SC(=O)NC3=O)cc1)O2 (centres unmarked) [TG-10]
IC50 [1, 12]: 19 ± 0.8 µM | IC50 [5]: > 7.5 µM | IC50 ([2]; Homo sapiens, PC-3, PC-3 cells): 19 ± 0.5 µM | IC50 [6]: 19 µM | IC50 [4, 13]: 13 ± 0.9 µM

Cc1c(C)c2c(c(C)c1OC(=O)CCC(=O)O)CCC(C)(COc1ccc(/C=C3\SC(=O)NC3=O)cc1)O2 (centres unmarked) [TG-13]
IC50 [1, 12]: 30 ± 1.5 µM | IC50 [5]: > 7.5 µM | IC50 ([2]; Homo sapiens, PC-3, PC-3 cells): 22 ± 0.6 µM | IC50 [6]: > 50 µM | IC50 [4, 13]: 28 ± 1.4 µM

CC(C)=CCOc1c(C)c(C)c2c(c1C)CCC(C)(COc1ccc(/C=C3\SC(=O)NC3=O)cc1-c1ccc(C(F)(F)F)cc1)O2 (centres unmarked) [TG-31]
IC50 [1, 12]: 4.7 ± 2 µM | IC50 [5]: > 7.5 µM | IC50 ([2]; Homo sapiens, PC-3, PC-3 cells): 30 ± 1.1 µM | IC50 [6]: > 50 µM | IC50 [4, 13]: 4.9 ± 1.2 µM

CCc1ccc(-c2cc(/C=C3\SC(=O)NC3=O)ccc2OCC2(C)CCc3c(C)c(OCC=C(C)C)c(C)c(C)c3O2)cc1 (centres unmarked) [TG-33]
IC50 [1, 12]: 21 ± 1.4 µM | IC50 [5]: > 7.5 µM | IC50 ([2]; Homo sapiens, PC-3, PC-3 cells): 17 ± 0.9 µM | IC50 [6]: > 50 µM | IC50 [4, 13]: 18 ± 0.8 µM

CC(C)=CCOc1c(C)c(C)c2c(c1C)CCC(C)(COc1ccc(/C=C3\SC(=O)NC3=O)cc1Br)O2 (centres unmarked) [TG-88]
activity in PPARγ activation [7]: lacked appreciable activity | extent of tumor growth inhibition ([8]; 100 mg/kg/day oral, after 63 days of treatment): 50% | extent of tumor growth inhibition ([8]; 200 mg/kg/day oral, after 63 days of treatment): 61% | tolerability, signs of toxicity ([8]; 100 and 200 mg/kg/day oral, nude mice): without observable signs of toxicity | body weights ([8]; 100 and 200 mg/kg/day oral, throughout the course of study): stable body weights | gross pathology at necropsy ([8]; after 63 days of treatment): No gross pathological abnormalities | IC50 [1, 12]: 2.8 ± 0.3 µM | IC50 [5]: > 7.5 µM | IC50 ([2]; Homo sapiens, PC-3, PC-3 cells): 2.5 ± 0.2 µM | IC50 ([2]; PC-3 cells): 4.2 ± 0.2 µM | IC50 [4, 13]: 1.8 ± 0.2 µM

CC1(COc2ccc(/C=C3\SC(=O)NC3=O)cc2)CCCCC1 [Δ2-CG, 5-[4-(1-methyl-cyclohexylmethoxy)-benzylidene]-thiazolidine-2,4-dione]
activity in PPARγ activation [7]: completely devoid of the ligand binding activity | IC50 [1, 12]: 22 ± 3 µM | IC50 [5]: 13 µM | IC50 ([2]; Homo sapiens, PC-3, PC-3 cells): 15 ± 1.2 µM | IC50 [6]: 70 µM | IC50 [4, 13]: 17 ± 2 µM

CCc1ccc(CCOc2ccc(/C=C3\SC(=O)NC3=O)cc2)nc1 [Δ2-PG, 5-{4-[2-(5-ethyl-pyridin-2-yl)-ethoxy]-benzylidene}-thiazolidine-2,4-dione]
activity in PPARγ activation [7]: completely devoid of the ligand binding activity | IC50 [1, 12]: > 50 µM | IC50 ([1]; unit inferred, read-out: IC50 for inhibiting BH3-mediated protein interactions (Bcl-2)): > 50 µM | IC50 ([2]; Homo sapiens, PC-3, PC-3 cells): > 50 µM | IC50 [4, 13]: > 50 µM | IC50 ([4]; unit inferred, read-out: IC50 for inhibiting BH3-mediated protein interactions (Bcl-xL)): > 50 µM

Cc1c(C)c2c(c(C)c1O)CCC(C)(COc1ccc(/C=C3\SC(=O)NC3=O)cc1)O2 (centres unmarked) [Δ2-TG, 5-[4-(6-hydroxy-2,5,7,8-tetramethyl-chroman-2-ylmethoxy)-benzylidene]-2,4-thiazolidine-dione]
caspase-9 activation [9]: dose-dependent | activity in PPARγ activation [7]: completely devoid of the ligand binding activity | IC50 [1, 12]: 18 ± 1 µM | IC50 [5]: 22 µM | IC50 ([2]; Homo sapiens, PC-3, PC-3 cells): 20 ± 2 µM | IC50 [3]: 14 ± 1 µM | level of Bak associated with Bcl-xL [10]: significantly reduced | IC50 [4, 13]: 18 ± 1 µM | level of Bak associated with Bcl-2 [11]: significantly reduced
